# Reference: patent US8217060B2, “Benzimidazole derivatives useful as TRP M8 receptor modulators” (Janssen Pharmaceutica, NV, priority 2009, dated 2012)
# Where a name gives a salt, the structure may show the parent alone.
# Tests used:
# Male Sprague Dawley rats [1] = experiment: Inhibition of Icilin-Induced “Wet-Dog” Shakes in Rats; format: in vivo; settings: 60 min before icilin 3.0 mg/kg i.p., rat
# Protocol: Male Sprague Dawley rats ([…], Charles River Labs, n=6-9/treatment) were used to evaluate the ability of test compounds to block icilin-induced “wet-dog” shakes (WDS). The test compound was administered in 10% hydroxypropyl-β-cyclodextrin (HP β CD), p.o., 60 minutes before icilin. Icilin was then administered in 10% solutol/H2O, at 3.0 mg/kg, i.p. and spontaneous “wet-dog” shakes were counted over a 10 minute period, 10 minutes following the icilin injection.
# canine TRPM8 = biological target: T1, canine TRPM8 (Canis lupus familiaris, UniProt Q1A7N1); experiment: In Vitro Canine TRPM8 Functional Assay (icilin-induced intracellular Ca2+ fluorescence, FLIPR/FDSS); format: cell-based; settings: HEK293 cells stably expressing canine TRPM8; for inhibition at 0.2 µM: 0.2 μM test compound, icilin challenge; for IC50: icilin challenge (~80% maximal response), eight-point dose-response
# T1 construct: expressed in transfected cells
# T1 sequence (Q1A7N1 1-1104): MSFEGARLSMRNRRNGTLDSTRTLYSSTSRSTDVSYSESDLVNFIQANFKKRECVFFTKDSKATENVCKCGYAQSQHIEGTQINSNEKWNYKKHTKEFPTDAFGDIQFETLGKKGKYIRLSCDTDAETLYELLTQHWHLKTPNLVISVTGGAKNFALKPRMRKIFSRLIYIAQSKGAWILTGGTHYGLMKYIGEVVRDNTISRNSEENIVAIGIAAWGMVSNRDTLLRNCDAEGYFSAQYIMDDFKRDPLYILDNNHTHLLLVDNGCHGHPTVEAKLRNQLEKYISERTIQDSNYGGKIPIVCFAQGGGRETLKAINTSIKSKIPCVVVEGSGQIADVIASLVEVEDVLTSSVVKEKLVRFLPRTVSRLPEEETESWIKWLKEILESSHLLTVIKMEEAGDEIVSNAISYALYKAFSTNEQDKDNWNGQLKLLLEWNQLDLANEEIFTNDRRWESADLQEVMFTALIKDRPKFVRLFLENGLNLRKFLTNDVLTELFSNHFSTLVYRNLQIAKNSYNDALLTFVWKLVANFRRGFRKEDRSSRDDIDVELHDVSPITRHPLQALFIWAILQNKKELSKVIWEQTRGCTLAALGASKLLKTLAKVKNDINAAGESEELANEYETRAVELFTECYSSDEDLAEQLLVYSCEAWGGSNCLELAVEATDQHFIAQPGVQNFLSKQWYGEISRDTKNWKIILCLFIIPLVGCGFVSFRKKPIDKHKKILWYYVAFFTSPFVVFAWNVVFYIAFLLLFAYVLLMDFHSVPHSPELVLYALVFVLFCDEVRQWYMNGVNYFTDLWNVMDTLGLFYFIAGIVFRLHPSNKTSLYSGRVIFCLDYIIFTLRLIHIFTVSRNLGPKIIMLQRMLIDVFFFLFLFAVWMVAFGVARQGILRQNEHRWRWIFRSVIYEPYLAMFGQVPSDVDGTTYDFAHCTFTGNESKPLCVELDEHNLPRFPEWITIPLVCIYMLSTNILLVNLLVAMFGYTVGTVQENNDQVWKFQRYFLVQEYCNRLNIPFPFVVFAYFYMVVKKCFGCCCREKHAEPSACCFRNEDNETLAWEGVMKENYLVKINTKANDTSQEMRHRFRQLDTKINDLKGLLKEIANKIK
# Protocol: The functional activity of representative compounds of the formula (I) of the present invention were measured by measuring changes in intracellular calcium concentration using a Ca^2+-sensitive fluorescent dye. The changes in fluorescent signal were monitored by a fluorescence plate reader, either a FLIPR™ (Molecular Devices) or FDSS (Hamamatsu).
# HEK293 cells stably expressing canine TRPM8 were routinely grown as monolayers in Dulbecco's minimum essential medium supplemented with 10% FBS, 2 mM L-glutamine, 100 units/mL penicillin, 100 ug/mL streptomycin and 400 μg/mL G418. Cells were maintained in 5% CO2 at 37° C. At 24 hrs prior to assay, cells were seeded in black wall, clear-base poly-D-lysine coated 384-well plates (BD Biosciences, NJ, USA) at a density of 5,000 cells per well in culture medium and grown overnight in 5% CO2 at 37° C. On assay day, growth media was removed and cells were loaded with Calcium 3 Dye (Molecular Devices) for 35 min at 37° C., under 5% CO2 and then for 25 min at room temperature and atmosphere. Subsequently, cells were tested for agonist-induced increases in intracellular Ca^2+ levels using FLIPR™ or FDSS. Cells were challenged with compounds of the formula (I) (at varying concentrations) and intracellular Ca^2+ was measured for 5 min prior to the addition of icilin to all wells to achieve a final concentration that produces approximately an 80% maximal response.
# Basal FI was subtracted prior to normalizing data to percent of maximal response. Curves were generated using the average of quadruplicate wells for each data point, were analyzed using nonlinear regression of either sigmoidal dose response or sigmoidal dose response (variable slope). Finally, the EC50 and IC50 values were calculated with the best-fit dose curve determined by GraphPad Prism
# Male Sprague Dawley rats [2] = experiment: Chronic Constriction Injury (CCI)-Induced Model of Neuropathic Pain - Acetone-Induced Hypersensitivity; format: in vivo; settings: 10 mg/kg p.o. in 10% HP β CD, rat
# Source text: Male Sprague Dawley rats (225-450 g; n=5-8/treatment) were used to evaluate the ability of test compounds to reverse CCI-induced cold hypersensitivity. Four loose ligatures of 4-0 chromic gut were surgically placed around the left sciatic nerve under inhalation anesthesia as described by Bennett et al (BENNETT G. J. et al., “A Peripheral Mononeuropathy in Rat that Produces Disorders of Pain Sensation Like Those Seen in Man”, Pain, 1988, pp. 87-107, Vol 33(1)). Fourteen to 35 days following CCI surgery, subjects were placed in elevated observation chambers containing wire mesh floors and five applications of acetone (0.05 mL/application separated by approximately 5 minutes) were spritzed onto the plantar surface of the paw using a multidose syringe. An abrupt withdrawal or lifting of the paw was considered a positive response. The number of positive responses was recorded for each rat over the five trials. Following baseline withdrawal determinations, test compounds were administered in 10% hydroxypropyl-β-cyclodextrin (HP β CD), p.o. The number of withdrawals was re-determined at 2, 3 and 4 hours after compound administration.
compound,measurement,setting,value
"FC(F)(F)Oc1ccccc1-c1ccc2[nH]c(/C=C/C3CCCCC3)nc2c1 [Compound 1, 2-(2-Cyclohexyl-vinyl)-5-(2-trifluoromethoxy-phenyl)-1H-benzimidazole hydrochloride salt]",% Inhibition of icilin-induced “wet-dog” shakes,Male Sprague Dawley rats [1]; 30 mg/kg p.o.,48%
same,inhibition at 0.2 µM,canine TRPM8,93%
same,IC50,canine TRPM8,14 nM
"FC1(F)CCC(/C=C/c2nc3cc(-c4ccccc4C(F)(F)F)ccc3[nH]2)CC1 [Compound 30, 2-[2-(4,4-Difluoro-cyclohexyl)-vinyl]-5-(2-trifluoromethyl-phenyl)-1H-benzimidazole hydrochloride salt]",% Inhibition of icilin-induced “wet-dog” shakes,Male Sprague Dawley rats [1]; 10 mg/kg p.o.,98%
same,inhibition at 0.2 µM,canine TRPM8,102%
same,IC50,canine TRPM8,3 nM
"FC(F)(F)c1ccccc1-c1ccc2[nH]c(/C=C/C3CCOCC3)nc2c1 [Compound 50, (E)-2-[2-(Tetrahydro-pyran-4-yl)-vinyl]-5-(2-trifluoromethyl-phenyl)-1H-benzimidazole hydrochloride]",% Inhibition of icilin-induced “wet-dog” shakes,Male Sprague Dawley rats [1]; 10 mg/kg p.o.,89%
same,inhibition at 0.2 µM,canine TRPM8,101%
same,IC50,canine TRPM8,17 nM
"FC(F)(F)c1cccc(C(F)(F)F)c1-c1ccc2[nH]c(/C=C/C3CCCCC3)nc2c1 [Compound 58, (E)-5-(2,6-Bis-trifluoromethyl-phenyl)-2-(2-cyclohexyl-vinyl)-1H-benzimidazole]",% Inhibition of icilin-induced “wet-dog” shakes,Male Sprague Dawley rats [1]; 10 mg/kg p.o.,30%
same,inhibition at 0.2 µM,canine TRPM8,83%
same,IC50,canine TRPM8,9 nM
"Fc1cccc(OC(F)(F)F)c1-c1ccc2[nH]c(/C=C/C3CCCCC3)nc2c1 [Compound 59, (E)-2-(2-Cyclohexyl-vinyl)-5-(2-fluoro-6-trifluoromethoxy-phenyl)-1H-benzimidazole]",% Inhibition of icilin-induced “wet-dog” shakes,Male Sprague Dawley rats [1]; 10 mg/kg p.o.,75%
same,inhibition at 0.2 µM,canine TRPM8,96%
same,IC50,canine TRPM8,6 nM
"FC(F)(F)c1ccccc1-c1ccc2[nH]c(/C=C/C34CCC(Br)(CC3)CC4)nc2c1 [Compound 70, (E)-2-[2-(4-Bromo-bicyclo[2.2.2]oct-1-yl)-vinyl]-5-(2-trifluoromethyl-phenyl)-1H-benzoimidazole]",inhibition at 0.2 µM,canine TRPM8,97%
same,IC50,canine TRPM8,11 nM
"Cl.FC(F)(F)c1ccccc1-c1ccc2[nH]c(/C=C/C3CCCCC3)nc2c1 [Compound 71, 2-(2-Cyclohexyl-vinyl)-5-(2-trifluoromethyl-phenyl)-1H-benzoimidazole hydrochloride]",% Inhibition of icilin-induced “wet-dog” shakes,Male Sprague Dawley rats [1]; 30 mg/kg p.o.,90%
same,inhibition at 0.2 µM,canine TRPM8,94%
same,IC50,canine TRPM8,9 nM
same,"% Inhibition (acetone-evoked paw withdrawals, CCI)",Male Sprague Dawley rats [2]; 2 h after administration,91%
same,"% Inhibition (acetone-evoked paw withdrawals, CCI)",Male Sprague Dawley rats [2]; 3 h after administration,91%
same,"% Inhibition (acetone-evoked paw withdrawals, CCI)",Male Sprague Dawley rats [2]; 4 h after administration,77%
